According to patent US9695154B2, “Heteroaryl inhibitors of sumo activating enzyme” (MILLENNIUM PHARMACEUTICALS, INC., priority 2013, dated 2017):
pIC50: −log10 of the molar value.

Biological target: T1, recombinant human SAE enzyme (Homo sapiens, UniProt Q9UBT2)
T1 sequence (Q9UBT2 1-640): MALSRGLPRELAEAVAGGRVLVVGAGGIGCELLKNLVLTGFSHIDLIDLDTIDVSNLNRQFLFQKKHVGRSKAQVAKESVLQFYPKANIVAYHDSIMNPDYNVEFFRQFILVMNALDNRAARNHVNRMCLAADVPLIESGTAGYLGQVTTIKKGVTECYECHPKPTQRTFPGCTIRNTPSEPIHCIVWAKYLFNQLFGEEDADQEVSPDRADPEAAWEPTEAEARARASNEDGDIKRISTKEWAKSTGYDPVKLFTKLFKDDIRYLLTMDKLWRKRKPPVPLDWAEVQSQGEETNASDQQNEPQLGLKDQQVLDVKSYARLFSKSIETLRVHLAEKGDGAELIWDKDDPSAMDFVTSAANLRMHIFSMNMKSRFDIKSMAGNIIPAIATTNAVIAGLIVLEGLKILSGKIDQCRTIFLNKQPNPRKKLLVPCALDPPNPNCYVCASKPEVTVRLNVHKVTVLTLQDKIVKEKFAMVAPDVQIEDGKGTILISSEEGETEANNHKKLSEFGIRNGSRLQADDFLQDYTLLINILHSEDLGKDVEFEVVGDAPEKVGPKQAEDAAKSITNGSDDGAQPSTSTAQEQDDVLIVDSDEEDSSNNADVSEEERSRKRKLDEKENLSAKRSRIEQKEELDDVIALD
T1 sequence (Q9UBE0 1-346 partner): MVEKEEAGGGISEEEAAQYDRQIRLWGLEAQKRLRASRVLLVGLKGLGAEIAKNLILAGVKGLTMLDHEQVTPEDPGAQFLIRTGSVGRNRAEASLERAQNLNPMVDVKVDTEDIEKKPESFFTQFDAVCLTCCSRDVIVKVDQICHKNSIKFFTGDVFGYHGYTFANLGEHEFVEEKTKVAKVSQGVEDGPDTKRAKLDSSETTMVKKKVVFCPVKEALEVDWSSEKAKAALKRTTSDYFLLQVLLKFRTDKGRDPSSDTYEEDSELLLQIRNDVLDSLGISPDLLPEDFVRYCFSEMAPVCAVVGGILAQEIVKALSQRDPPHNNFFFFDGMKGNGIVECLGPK
Test: SAE HTRF Enzyme Assay
Assay type: biochemical
Conditions: for pIC50: class symbols A-C; for inhibition at 0.111 µM: compound concentration 0.111 μM, read-out: Percent Inhibition
How it was run: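 Measured as FRET after a 2 h antibody step: SAE (0.11 nM) thioester transfer of Sumo-Flag to Ubc9-GST, 0.5 μM ATP, 24° C for 105 min, quenched with 20 mM EDTA. Output is IC50 or percent inhibition at a single concentration.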

SMILES	pIC50	inhibition at 0.111 µM [%]
NS(=O)(=O)OC[C@H]1C[C@@H](Nc2ncncc2C(=O)c2ccn(Cc3ccccc3)n2)C[C@@H]1O [Compound I-158, [(1R,2S,4R)-4-({5-[(1-Benzyl-1H-pyrazol-3-yl)carbonyl]pyrimidin-4-yl}amino)-2-hydroxycyclopentyl]methyl sulfamate]	> 8.00	95
NS(=O)(=O)OC[C@H]1C[C@@H](Nc2ncncc2C(=O)c2ccn(Cc3ccc(Cl)c(Cl)c3)n2)[C@H](O)[C@@H]1O [Compound I-159, {(1R,2R,3S,4R)-4-[(5-{[1-(3,4-dichlorobenzyl)-1H-pyrazol-3-yl]carbonyl}pyrimidin-4-yl)amino]-2,3-dihydroxycyclopentyl}methyl sulfamate]	> 8.00	96
NS(=O)(=O)OC[C@H]1C[C@@H](Nc2ncncc2C(=O)c2ccn(Cc3ccncc3)n2)[C@H](O)[C@@H]1O [Compound I-160, {(1R,2R,3S,4R)-2,3-dihydroxy-4-[(5-{[1-(pyridin-4-ylmethyl)-1H-pyrazol-3-yl]carbonyl}pyrimidin-4-yl)amino]cyclopentyl}methyl sulfamate]	7.00 to 8.00	81
NS(=O)(=O)OC[C@H]1C[C@@H](Nc2ncncc2C(=O)c2ccn(Cc3ccc(F)cc3)n2)C[C@@H]1O [Compound I-161, {(1R,2S,4R)-4-[(5-{[1-(4-fluorobenzyl)-1H-pyrazol-3-yl]carbonyl}pyrimidin-4-yl)amino]-2-hydroxycyclopentyl}methyl sulfamate]	> 8.00	92
Cc1ccnc(Cn2ccc(C(=O)c3cncnc3N[C@@H]3C[C@H](COS(N)(=O)=O)[C@@H](O)C3)n2)c1 [Compound I-162, [(1R,2S,4R)-2-hydroxy-4-{[5-({1-[(4-methylpyridin-2-yl)methyl]-1H-pyrazol-3-yl}carbonyl)pyrimidin-4-yl]amino}cyclopentyl]methyl sulfamate]	> 8.00	99
NS(=O)(=O)OC[C@H]1C[C@@H](Nc2ncncc2C(=O)c2ccn(Cc3ccc(C(F)(F)F)o3)n2)C[C@@H]1O [Compound I-163, [(1R,2S,4R)-2-hydroxy-4-({5-[(1-{[5-(trifluoromethyl)-2-furyl]methyl}-1H-pyrazol-3-yl)carbonyl]pyrimidin-4-yl}amino)cyclopentyl]methyl sulfamate]	> 8.00	98
C#Cc1cccc(Cn2nc(C(=O)c3cncnc3N[C@@H]3C[C@H](COS(N)(=O)=O)[C@@H](O)C3)cc2C)c1 [Compound I-164, {(1R,2S,4R)-4-[(5-{[1-(3-ethynylbenzyl)-5-methyl-1H-pyrazol-3-yl]carbonyl}pyrimidin-4-yl)amino]-2-hydroxycyclopentyl}methyl sulfamate]	> 8.00	> 99
NS(=O)(=O)OC[C@H]1C[C@@H](Nc2ncncc2C(=O)c2ccn(Cc3cccc(F)c3)n2)C[C@@H]1O [Compound I-165, {(1R,2S,4R)-4-[(5-{[1-(3-fluorobenzyl)-1H-pyrazol-3-yl]carbony1}pyrimidin-4-yl)amino]-2-hydroxycyclopentyl}methyl sulfamate]	> 8.00	98
C#Cc1cc(Cn2ccc(C(=O)c3cncnc3N[C@@H]3C[C@H](COS(N)(=O)=O)[C@@H](O)C3)n2)ccc1F [Compound I-166, {(1R,2S,4R)-4-[(5-{[1-(3-ethynyl-4-fluorobenzyl)-1H-pyrazol-3-yl]carbonyl}pyrimidin-4-yl)amino]-2-hydroxycyclopentyl}methyl sulfamate]	> 8.00	98
NS(=O)(=O)OC[C@H]1C[C@@H](Nc2ncncc2C(=O)c2ccn(Cc3ccc(C(F)(F)F)cc3)n2)[C@H](O)[C@@H]1O [Compound I-167, [(1R,2R,3S,4R)-2,3-dihydroxy-4-{[5-({1-[4-(trifluoromethyl)benzyl]-1H-pyrazol-3-yl}carbonyl)pyrimidin-4-yl]amino}cyclopentyl]methyl sulfamate]	> 8.00	98
NS(=O)(=O)OC[C@H]1C[C@@H](Nc2ncncc2C(=O)c2ccn(Cc3cc(C(F)(F)F)cc(C(F)(F)F)c3)c2)C[C@@H]1O [Compound I-168, [(1R,2S,4R)-4-{[5-({1-[3,5-Bis(trifluoromethyl)benzyl]-1H-pyrrol-3-yl}carbonyl)pyrimidin-4-yl]amino}-2-hydroxycyclopentyl]methylsulfamate]	> 8.00	94
Cc1cc(Cn2ccc(C(=O)c3cncnc3N[C@@H]3C[C@H](COS(N)(=O)=O)[C@@H](O)[C@H]3O)n2)no1 [Compound I-169, [(1R,2R,3S,4R)-2,3-dihydroxy-4-{[5-({1-[(5-methylisoxazol-3-yl)methyl]-1H-pyrazol-3-yl}carbonyl)pyrimidin-4-yl]amino}cyclopentyl]methyl sulfamate]	> 8.00	97
NS(=O)(=O)OC[C@H]1C[C@@H](Nc2ncncc2C(=O)c2cc(C(F)(F)F)n(Cc3cccc(Cl)c3)n2)C[C@@H]1O [Compound I-170, {(1R,2S,4R)-4-[(5-{[1-(3-Chlorobenzyl)-5-(trifluoromethyl)-1H-pyrazol-3-yl]carbonyl}pyrimidin-4-yl)amino]-2-hydroxycyclopentyl}methyl sulfamate]	> 8.00	97
NS(=O)(=O)OC[C@H]1C[C@@H](Nc2ncncc2C(=O)c2ccn(Cc3ccc(C(F)(F)F)cc3)n2)C[C@@H]1O [Compound I-171, [(1R,2S,4R)-2-hydroxy-4-{[5-({1-[4-(trifluoromethyl)benzyl]-1H-pyrazol-3-yl}carbonyl)pyrimidin-4-yl]amino}cyclopentyl]methyl sulfamate]	> 8.00	95
CC(C)Cn1ccc(C(=O)c2cncnc2N[C@@H]2C[C@H](COS(N)(=O)=O)[C@@H](O)[C@H]2O)n1 [Compound I-173, [(1R,2R,3S,4R)-2,3-dihydroxy-4-({5-[(1-isobutyl-1H-pyrazol-3-yl)carbonyl]pyrimidin-4-yl}amino)cyclopentyl]methyl sulfamate]	7.00 to 8.00	71
NS(=O)(=O)OC[C@H]1C[C@@H](Nc2ccncc2C(=O)c2ccn(Cc3ccc(Cl)c(C(F)(F)F)c3)n2)C[C@@H]1O [Compound I-174, [(1R,2S,4R)-4-{[3-({1-[4-chloro-3-(trifluoromethyl)benzyl]-1H-pyrazol-3-yl}carbonyl)pyridin-4-yl]amino}-2-hydroxycyclopentyl]methyl sulfamate]	> 8.00	93
NS(=O)(=O)OC[C@H]1C[C@@H](Nc2ncncc2C(=O)c2ccn(Cc3cccc(Cl)c3)n2)[C@@H](F)[C@@H]1O [Compound I-176, {(1R,2R,3R,4R)-4-[(5-{[1-(3-chlorobenzyl)-1H-pyrazol-3-yl]carbonyl}pyrimidin-4-yl)amino]-3-fluoro-2-hydroxycyclopentyl}methyl sulfamate]	> 8.00	98
NS(=O)(=O)OC[C@H]1C[C@@H](Nc2ncncc2C(=O)c2ccn(Cc3cccc(Br)c3F)n2)[C@@H](F)[C@@H]1O [Compound I-177, ((1R,2R,3R,4R)-4-((5-(1-(3-Bromo-2-fluorobenzyl)-1H-pyrazole-3 carbonyl)pyrimidin-4-yl)amino)-3-fluoro-2-hydroxycyclopentyl)methyl sulfamate]	> 8.00	99
NS(=O)(=O)OC[C@H]1C[C@@H](Nc2ncncc2C(=O)c2ccn(Cc3ccc(F)c(I)c3)n2)[C@@H](F)[C@@H]1O [Compound I-178, {(1R,2R,3R,4R)-3-fluoro-4-[(5-{[1-(4-fluoro-3-iodobenzyl)-1H-pyrazol-3-yl]carbonyl}pyrimidin-4-yl)amino]-2-hydroxycyclopentyl}methyl sulfamate]	> 8.00	99
NS(=O)(=O)OC[C@H]1C[C@@H](Nc2ncncc2C(=O)c2ccn(Cc3ccc(Cl)c(Br)c3)n2)C[C@@H]1O [Compound I-179, {(1R,2S,4R)-4-[(5-{[1-(3-bromo-4-chlorobenzyl)-1H-pyrazol-3-yl]carbonyl}pyrimidin-4-yl)amino]-2-hydroxycyclopentyl}methyl sulfamate]	> 8.00	> 99
NS(=O)(=O)OC[C@H]1C[C@@H](Nc2ncncc2C(=O)c2ccn(Cc3ccc(Cl)o3)n2)C[C@@H]1O [Compound I-180, [(1R,2S,4R)-4-{[5-({1-[(5-chloro-2-furyl)methyl]-1H-pyrazol-3-yl}carbonyl)pyrimidin-4-yl]amino}-2-hydroxycyclopentyl]methyl sulfamate]	> 8.00	99
